Patent US20240165282A1, “CONFORMATIONAL CONSTRAINED SOMATOSTATIN RECEPTOR 3 PEPTIDE LIGANDS AND THEIR CONJUGATES AND USES THEREOF” (STARGET PHARMA LTD., priority 2021, published 2024)
*1 amine or outer side, *2 acyl side, *3 side chain or, on linkers, in order; H or OH if unused. Where a SMILES comes first, the peptide text is derived from it. Bridges are numbered along the chain shown (N, C = ends). [ ]: non-standard residue; d: D form. The star is where a group is joined. DOTA = O=C(O)CN1CCN(CC(=O)O)CCN(CC(=O)*)CCN(CC(=O)O)CC1; N(2-mercaptoethyl)Gly = O=C(CN(CCS[*:3])[*:1])[*:2]

Columns and labels:
5-HT transporter (h) = target: T1, 5-HT transporter (h) (Homo sapiens, UniProt P31645); experiment: Cerep off-target radioligand binding; conditions: 1 micromolar; antagonist radioligand; read-out: % Activity: Inhibition of Control Specific Binding
T1 construct: Eurofins Cerep (contract assay)
T1 sequence (P31645 whole entry): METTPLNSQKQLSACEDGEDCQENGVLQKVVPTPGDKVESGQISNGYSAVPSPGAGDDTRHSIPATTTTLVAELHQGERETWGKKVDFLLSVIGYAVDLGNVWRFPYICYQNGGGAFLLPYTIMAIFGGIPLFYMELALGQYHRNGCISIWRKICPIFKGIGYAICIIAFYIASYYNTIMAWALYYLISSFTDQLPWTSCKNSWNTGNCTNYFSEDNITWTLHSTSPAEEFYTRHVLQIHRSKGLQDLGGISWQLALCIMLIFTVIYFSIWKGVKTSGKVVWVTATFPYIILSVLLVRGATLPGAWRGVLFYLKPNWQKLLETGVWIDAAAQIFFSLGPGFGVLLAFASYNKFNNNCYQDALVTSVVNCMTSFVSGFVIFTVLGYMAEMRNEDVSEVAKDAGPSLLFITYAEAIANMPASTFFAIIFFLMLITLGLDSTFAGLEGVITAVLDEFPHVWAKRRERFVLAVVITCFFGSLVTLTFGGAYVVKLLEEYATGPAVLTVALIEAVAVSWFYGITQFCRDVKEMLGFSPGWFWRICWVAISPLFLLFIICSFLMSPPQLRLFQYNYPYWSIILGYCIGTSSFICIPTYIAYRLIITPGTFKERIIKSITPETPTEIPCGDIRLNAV
Procedure: (§1) In this example, off-target interactions for SEQ ID NO.
(§2) The assays were performed by Eurofins Cerep (Celle 1'Evescault, France). Compound binding was calculated as a % inhibition of the binding of a radioactively labeled ligand specific for each target. Compound enzyme inhibition effect was calculated as a % inhibition of control enzyme activity. In each experiment and if applicable, the respective reference compound was tested concurrently with SEQ ID NO. 3, and the data were compared with historical values determined at Eurofins. The experiment was accepted in accordance with Eurofins validation Standard Operating Procedure. Results showing an inhibition (or stimulation for assays run in basal conditions) higher than 50% are considered to represent significant effects of the test compounds.

[1] = target: T2, Potassium Channel hERG (human) (Homo sapiens, UniProt Q12809); experiment: Cerep off-target radioligand binding; conditions: [3H] Dofetilide, read-out: % Activity: Inhibition of Control Specific Binding
T2 construct: Eurofins Cerep (contract assay)
Procedure: as §1, §2

alpha 1A (h) = alpha 1A (h) (Homo sapiens, UniProt P35348); experiment: Cerep off-target radioligand binding; conditions: 1 micromolar; antagonist radioligand; read-out: % Activity: Inhibition of Control Specific Binding
Procedure: as §1, §2

A2A (h) = A2A (h) (Homo sapiens, UniProt P29274); experiment: Cerep off-target radioligand binding; conditions: 1 micromolar; agonist radioligand; read-out: % Activity: Inhibition of Control Specific Binding
Procedure: as §1, §2

[2] = target: T3, norepinephrine transporter (h) (Homo sapiens, UniProt P23975); experiment: Cerep off-target radioligand binding; conditions: 1 micromolar; antagonist radioligand; read-out: % Activity: Inhibition of Control Specific Binding
T3 construct: Eurofins Cerep (contract assay)
T3 sequence (P23975 whole entry): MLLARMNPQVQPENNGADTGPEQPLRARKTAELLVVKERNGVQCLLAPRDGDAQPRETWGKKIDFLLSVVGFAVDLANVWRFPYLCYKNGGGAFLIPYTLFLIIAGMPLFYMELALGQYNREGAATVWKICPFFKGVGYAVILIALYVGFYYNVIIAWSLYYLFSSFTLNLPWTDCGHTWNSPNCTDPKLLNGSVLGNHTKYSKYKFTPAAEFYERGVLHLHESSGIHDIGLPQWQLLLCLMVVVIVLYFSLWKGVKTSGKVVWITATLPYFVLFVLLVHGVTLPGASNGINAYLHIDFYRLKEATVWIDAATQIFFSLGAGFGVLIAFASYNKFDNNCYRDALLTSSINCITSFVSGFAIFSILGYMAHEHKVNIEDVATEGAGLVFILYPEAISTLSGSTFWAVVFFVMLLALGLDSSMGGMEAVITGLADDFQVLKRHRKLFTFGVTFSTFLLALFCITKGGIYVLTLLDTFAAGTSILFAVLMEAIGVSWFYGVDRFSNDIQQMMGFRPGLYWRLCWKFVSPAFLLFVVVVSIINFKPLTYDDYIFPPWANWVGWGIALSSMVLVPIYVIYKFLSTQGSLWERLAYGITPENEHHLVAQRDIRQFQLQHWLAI
Procedure: as §1, §2

5-HT1A (h) = target: T4, 5-HT1A (h) (Homo sapiens, UniProt P08908); experiment: Cerep off-target radioligand binding; conditions: 1 micromolar; agonist radioligand; read-out: % Activity: Inhibition of Control Specific Binding
T4 construct: Eurofins Cerep (contract assay)
Procedure: as §1, §2

H1 (h) = H1 (h) (Homo sapiens, UniProt P35367); experiment: Cerep off-target radioligand binding; conditions: 1 micromolar; antagonist radioligand; read-out: % Activity: Inhibition of Control Specific Binding
Procedure: as §1, §2

M3 (h) = M3 (h) (Homo sapiens, UniProt P20309); experiment: Cerep off-target radioligand binding; conditions: 1 micromolar; antagonist radioligand; read-out: % Activity: Inhibition of Control Specific Binding
Sequence of M3 (h) (P20309 whole entry): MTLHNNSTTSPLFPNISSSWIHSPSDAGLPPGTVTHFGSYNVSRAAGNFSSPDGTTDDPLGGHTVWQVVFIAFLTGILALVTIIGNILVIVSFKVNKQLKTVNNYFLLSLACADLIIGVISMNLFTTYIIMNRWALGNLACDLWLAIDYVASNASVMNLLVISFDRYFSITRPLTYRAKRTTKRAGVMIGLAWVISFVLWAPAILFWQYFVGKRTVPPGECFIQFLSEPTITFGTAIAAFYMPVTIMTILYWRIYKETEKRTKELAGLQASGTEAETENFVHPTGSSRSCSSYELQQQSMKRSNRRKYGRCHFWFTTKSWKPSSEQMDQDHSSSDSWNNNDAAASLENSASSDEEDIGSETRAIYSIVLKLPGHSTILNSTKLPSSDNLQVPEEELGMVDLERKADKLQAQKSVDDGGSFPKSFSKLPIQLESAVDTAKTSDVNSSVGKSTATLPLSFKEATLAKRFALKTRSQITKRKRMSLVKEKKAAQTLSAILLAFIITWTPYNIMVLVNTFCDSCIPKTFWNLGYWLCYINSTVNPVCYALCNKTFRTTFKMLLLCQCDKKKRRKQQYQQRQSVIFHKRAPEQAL
Procedure: as §1, §2

D1 (h) = D1 (h) (Homo sapiens, UniProt P21728); experiment: Cerep off-target radioligand binding; conditions: 1 micromolar; antagonist radioligand; read-out: % Activity: Inhibition of Control Specific Binding
Procedure: as §1, §2

H2 (h) = H2 (h) (Homo sapiens, UniProt P25021); experiment: Cerep off-target radioligand binding; conditions: 1 micromolar; antagonist radioligand; read-out: % Activity: Inhibition of Control Specific Binding
Sequence of H2 (h) (P25021 whole entry): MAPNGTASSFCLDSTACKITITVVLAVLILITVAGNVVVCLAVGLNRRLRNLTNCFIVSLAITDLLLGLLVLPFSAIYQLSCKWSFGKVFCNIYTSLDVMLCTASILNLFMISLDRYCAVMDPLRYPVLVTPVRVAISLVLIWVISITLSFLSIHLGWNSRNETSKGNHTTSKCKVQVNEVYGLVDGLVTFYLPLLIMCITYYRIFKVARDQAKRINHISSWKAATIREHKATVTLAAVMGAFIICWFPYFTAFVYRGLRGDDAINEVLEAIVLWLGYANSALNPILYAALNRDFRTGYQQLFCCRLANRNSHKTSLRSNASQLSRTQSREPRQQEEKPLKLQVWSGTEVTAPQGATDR
Procedure: as §1, §2

CB1 (h) = CB1 (h) (Homo sapiens, UniProt P21554); experiment: Cerep off-target radioligand binding; conditions: 1 micromolar; agonist radioligand; read-out: % Activity: Inhibition of Control Specific Binding
Sequence of CB1 (h) (P21554 whole entry): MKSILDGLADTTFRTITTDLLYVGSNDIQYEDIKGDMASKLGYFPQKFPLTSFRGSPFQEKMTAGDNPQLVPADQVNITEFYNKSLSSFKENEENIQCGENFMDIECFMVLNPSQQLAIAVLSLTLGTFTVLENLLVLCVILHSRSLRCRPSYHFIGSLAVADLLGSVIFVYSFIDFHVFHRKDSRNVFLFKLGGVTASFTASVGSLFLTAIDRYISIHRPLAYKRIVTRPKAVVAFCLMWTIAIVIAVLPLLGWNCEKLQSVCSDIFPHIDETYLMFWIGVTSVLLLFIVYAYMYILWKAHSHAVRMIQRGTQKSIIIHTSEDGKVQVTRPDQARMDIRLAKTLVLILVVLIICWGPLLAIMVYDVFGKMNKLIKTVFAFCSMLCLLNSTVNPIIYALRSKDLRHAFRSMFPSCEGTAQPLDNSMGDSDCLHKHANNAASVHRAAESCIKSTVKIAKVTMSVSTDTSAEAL
Procedure: as §1, §2

mu (MOP) (h) = target: T5, mu (MOP) (h) (Homo sapiens, UniProt P35372); experiment: Cerep off-target radioligand binding; conditions: 1 micromolar; agonist radioligand; read-out: % Activity: Inhibition of Control Specific Binding
T5 construct: Eurofins Cerep (contract assay)
T5 sequence (P35372 whole entry): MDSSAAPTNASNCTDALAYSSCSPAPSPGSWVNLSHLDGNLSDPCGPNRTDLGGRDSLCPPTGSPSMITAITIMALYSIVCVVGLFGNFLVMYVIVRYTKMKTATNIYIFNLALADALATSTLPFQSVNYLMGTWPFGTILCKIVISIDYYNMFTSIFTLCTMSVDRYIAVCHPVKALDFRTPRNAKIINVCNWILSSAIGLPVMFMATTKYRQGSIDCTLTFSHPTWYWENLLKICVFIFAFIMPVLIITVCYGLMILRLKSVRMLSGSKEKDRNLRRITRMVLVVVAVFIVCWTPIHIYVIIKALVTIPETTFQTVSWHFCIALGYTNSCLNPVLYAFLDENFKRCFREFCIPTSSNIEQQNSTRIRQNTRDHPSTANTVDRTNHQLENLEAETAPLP
Procedure: as §1, §2

GR (h) = target: T6, GR (h) (Homo sapiens, UniProt P04150); experiment: Cerep off-target radioligand binding; conditions: 1 micromolar; agonist radioligand; read-out: % Activity: Inhibition of Control Specific Binding
T6 construct: Eurofins Cerep (contract assay)
Procedure: as §1, §2

delta (DOP) (h) = delta (DOP) (h) (Homo sapiens, UniProt P41143); experiment: Cerep off-target radioligand binding; conditions: 1 micromolar; agonist radioligand; read-out: % Activity: Inhibition of Control Specific Binding
Sequence of delta (DOP) (h) (P41143 whole entry): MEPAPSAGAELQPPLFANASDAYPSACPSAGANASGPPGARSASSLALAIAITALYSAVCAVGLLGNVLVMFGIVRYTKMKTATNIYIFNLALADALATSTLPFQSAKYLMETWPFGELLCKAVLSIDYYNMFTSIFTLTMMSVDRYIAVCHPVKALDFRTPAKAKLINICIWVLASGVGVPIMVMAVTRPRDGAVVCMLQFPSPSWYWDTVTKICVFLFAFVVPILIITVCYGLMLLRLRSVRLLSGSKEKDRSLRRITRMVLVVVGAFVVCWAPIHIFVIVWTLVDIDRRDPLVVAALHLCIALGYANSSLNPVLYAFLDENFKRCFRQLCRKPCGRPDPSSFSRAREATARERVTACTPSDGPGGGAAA
Procedure: as §1, §2

V1a (h) = target: T7, V1a (h) (Homo sapiens, UniProt P37288); experiment: Cerep off-target radioligand binding; conditions: 1 micromolar; agonist radioligand; read-out: % Activity: Inhibition of Control Specific Binding
T7 construct: Eurofins Cerep (contract assay)
T7 sequence (P37288 whole entry): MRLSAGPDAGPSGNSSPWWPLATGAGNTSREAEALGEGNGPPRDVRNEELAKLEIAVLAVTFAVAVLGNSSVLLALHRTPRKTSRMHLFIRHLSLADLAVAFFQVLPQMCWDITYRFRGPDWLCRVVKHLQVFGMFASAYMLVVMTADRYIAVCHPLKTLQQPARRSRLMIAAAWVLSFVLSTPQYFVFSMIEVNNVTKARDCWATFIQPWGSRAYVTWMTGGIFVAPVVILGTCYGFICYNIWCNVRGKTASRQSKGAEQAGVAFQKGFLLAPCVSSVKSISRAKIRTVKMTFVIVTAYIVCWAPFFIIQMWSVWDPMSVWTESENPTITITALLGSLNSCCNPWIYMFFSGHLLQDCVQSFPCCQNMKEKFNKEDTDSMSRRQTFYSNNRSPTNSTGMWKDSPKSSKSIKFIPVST
Procedure: as §1, §2

alpha 2A (h) = alpha 2A (h) (Homo sapiens, UniProt P08913); experiment: Cerep off-target radioligand binding; conditions: 1 micromolar; antagonist radioligand; read-out: % Activity: Inhibition of Control Specific Binding
Sequence of alpha 2A (h) (P08913 whole entry): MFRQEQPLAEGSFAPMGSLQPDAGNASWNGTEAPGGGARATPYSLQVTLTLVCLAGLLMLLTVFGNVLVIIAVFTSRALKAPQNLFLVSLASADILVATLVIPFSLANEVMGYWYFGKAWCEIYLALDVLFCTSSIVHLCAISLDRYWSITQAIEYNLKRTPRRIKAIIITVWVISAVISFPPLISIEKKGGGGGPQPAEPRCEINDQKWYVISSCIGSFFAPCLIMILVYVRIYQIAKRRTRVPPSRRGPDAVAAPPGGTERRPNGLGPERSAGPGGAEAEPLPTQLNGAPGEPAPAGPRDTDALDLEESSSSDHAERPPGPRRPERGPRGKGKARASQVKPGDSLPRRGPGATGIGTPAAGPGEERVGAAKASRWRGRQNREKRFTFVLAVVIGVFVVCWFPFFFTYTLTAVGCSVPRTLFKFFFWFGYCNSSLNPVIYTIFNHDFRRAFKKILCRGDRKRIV
Procedure: as §1, §2

M2 (h) = M2 (h) (Homo sapiens, UniProt P08172); experiment: Cerep off-target radioligand binding; conditions: 1 micromolar; antagonist radioligand; read-out: % Activity: Inhibition of Control Specific Binding
Sequence of M2 (h) (P08172 whole entry): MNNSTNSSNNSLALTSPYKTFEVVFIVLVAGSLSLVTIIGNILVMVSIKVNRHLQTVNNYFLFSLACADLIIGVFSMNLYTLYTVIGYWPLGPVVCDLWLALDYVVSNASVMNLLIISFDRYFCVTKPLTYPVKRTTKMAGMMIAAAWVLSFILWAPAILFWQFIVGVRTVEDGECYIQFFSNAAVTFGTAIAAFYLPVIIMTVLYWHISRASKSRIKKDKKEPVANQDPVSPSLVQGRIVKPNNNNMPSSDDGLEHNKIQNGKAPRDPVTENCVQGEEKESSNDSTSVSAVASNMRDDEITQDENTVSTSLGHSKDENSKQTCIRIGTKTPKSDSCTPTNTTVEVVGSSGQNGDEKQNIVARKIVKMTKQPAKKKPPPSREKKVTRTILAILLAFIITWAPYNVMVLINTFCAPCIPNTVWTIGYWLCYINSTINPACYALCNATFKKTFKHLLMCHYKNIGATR
Procedure: as §1, §2

[3] = test system: 44 human cloned GPCRs and GPCR mediated cellular enzymatic activities; experiment: Eurofins Cerep off-target safety pharmacology panel; assay type: binding; conditions: 1 micromolar
Procedure: as §1, §2
Results showing an inhibition (or stimulation) between 25% and 50% are indicative of weak to moderate effects (in most assays, they should be confirmed by further testing as they are within a range where more inter-experimental variability can occur). […]
Low to moderate negative values have no real meaning and are attributable to variability of the signal around the control level. […] The results are expressed as a percent of control specific binding measured specific binding

KV channel = experiment: Cerep off-target radioligand binding; set-up: species or system human; conditions: 1 micromolar; antagonist radioligand
Procedure: as §1, §2

NMDA = experiment: Cerep off-target radioligand binding; set-up: species or system human; conditions: 1 micromolar; antagonist radioligand
Procedure: as §1, §2

Na+ channel (site 2) = experiment: Cerep off-target radioligand binding; set-up: species or system human; conditions: 1 micromolar; antagonist radioligand
Procedure: as §1, §2

BZD (central) = experiment: Cerep off-target radioligand binding; set-up: species or system human; conditions: 1 micromolar; agonist radioligand
Procedure: as §1, §2

MAO-A = target: T8, MAO-A (Rattus norvegicus, UniProt P21396); experiment: Cerep off-target radioligand binding; set-up: species or system human; conditions: 1 micromolar; antagonist radioligand; read-out: % Activity: Inhibition of Control Specific Binding
T8 construct: Eurofins Cerep (assay service)
Procedure: as §1, §2

[4] = test system: Ca2+ channel (L, dihydropyridine site); experiment: Cerep off-target radioligand binding; set-up: species or system human; conditions: 1 micromolar; antagonist radioligand
Procedure: as §1, §2

AR(h) = experiment: Cerep off-target radioligand binding; set-up: species or system human; conditions: 1 micromolar; agonist radioligand
Procedure: as §1, §2

For `C[C@@H](O)[C@@H]1NC(=O)[C@H](CCCCN)NC(=O)[C@@H](Cc2c[nH]c3ccccc23)NC(=O)[C@H](Cc2ccccc2)NC(=O)[C@@H](NC(=O)[C@H](CCCNC(=N)N)NC(=O)[C@@H](Cc2ccccc2)NC(=O)CN2CCN(CC(=O)O)CCN(CC(=O)O)CCN(CC(=O)O)CC2)CSSCCN(CC(N)=O)C(=O)[C@H](Cc2ccccc2)NC1=O` [SEQ ID NO: 3, DOTA-D-Phe^1-Arg^2-Cys^3-Phe^4-D-Trp^5-Lys^6-Thr^7-Phe^8-NTEG^9-NH2 cyclo 3-9] ({DOTA}-[dF]RCF[dW]KTF[N(2-mercaptoethyl)Gly]-NH2; disulfide 3-9), the inhibition at 1 µM (5-HT transporter (h)) was -9%, the inhibition at 1 micromolar [1] was -9% and the inhibition at 1 µM (alpha 1A (h)) was -1%. The inhibition at 1 µM (A2A (h)) was 0%, the inhibition at 1 µM [2] was -10% and the inhibition at 1 µM (5-HT1A (h)) was -3%. For the same compound, the inhibition at 1 µM (H1 (h)) was 7%, the inhibition at 1 µM (M3 (h)) was -7% and the inhibition at 1 µM (D1 (h)) was -1%. For the same compound, the inhibition at 1 µM (H2 (h)) was -7%, the inhibition at 1 µM (CB1 (h)) was 1% and the inhibition at 1 µM (mu (MOP) (h)) was 8%. The inhibition at 1 µM (GR (h)) was -10%, the inhibition at 1 µM (delta (DOP) (h)) was 10% and the inhibition at 1 µM (V1a (h)) was 0%. The inhibition at 1 µM (alpha 2A (h)) was 2%, the inhibition at 1 µM (M2 (h)) was -4% and the “off-target interactions with opiate receptors” value [3] was “not indicated”. The “off-target interactions, safety pharmacology panel (in words)” value [3] was “no interaction with human cloned GPCRs of clinical significance”, the “% Activity: Inhibition of Control Specific Binding” value (from here on “% Activity: Inhibition”) (KV channel) was −5% and the “% Activity: Inhibition” value (NMDA) was 10%. For the same compound, the “% Activity: Inhibition” value (Na+ channel (site 2)) was 3%, the “% Activity: Inhibition” value (BZD (central)) was −7% and the inhibition at 1 µM (MAO-A) was 3%. For the same compound, the “% Activity: Inhibition” value [4] was −10% and the “% Activity: Inhibition” value (AR(h)) was −9%.
